We go through 35 compounds from patent US10123993B2, “Cyclic ureas as inhibitors of rock” (BRISTOL-MYERS SQUIBB COMPANY, priority 2015, dated 2018).

Some results are limits rather than exact numbers.

Sequence of ROCK2 (O75116 whole entry, species assumed): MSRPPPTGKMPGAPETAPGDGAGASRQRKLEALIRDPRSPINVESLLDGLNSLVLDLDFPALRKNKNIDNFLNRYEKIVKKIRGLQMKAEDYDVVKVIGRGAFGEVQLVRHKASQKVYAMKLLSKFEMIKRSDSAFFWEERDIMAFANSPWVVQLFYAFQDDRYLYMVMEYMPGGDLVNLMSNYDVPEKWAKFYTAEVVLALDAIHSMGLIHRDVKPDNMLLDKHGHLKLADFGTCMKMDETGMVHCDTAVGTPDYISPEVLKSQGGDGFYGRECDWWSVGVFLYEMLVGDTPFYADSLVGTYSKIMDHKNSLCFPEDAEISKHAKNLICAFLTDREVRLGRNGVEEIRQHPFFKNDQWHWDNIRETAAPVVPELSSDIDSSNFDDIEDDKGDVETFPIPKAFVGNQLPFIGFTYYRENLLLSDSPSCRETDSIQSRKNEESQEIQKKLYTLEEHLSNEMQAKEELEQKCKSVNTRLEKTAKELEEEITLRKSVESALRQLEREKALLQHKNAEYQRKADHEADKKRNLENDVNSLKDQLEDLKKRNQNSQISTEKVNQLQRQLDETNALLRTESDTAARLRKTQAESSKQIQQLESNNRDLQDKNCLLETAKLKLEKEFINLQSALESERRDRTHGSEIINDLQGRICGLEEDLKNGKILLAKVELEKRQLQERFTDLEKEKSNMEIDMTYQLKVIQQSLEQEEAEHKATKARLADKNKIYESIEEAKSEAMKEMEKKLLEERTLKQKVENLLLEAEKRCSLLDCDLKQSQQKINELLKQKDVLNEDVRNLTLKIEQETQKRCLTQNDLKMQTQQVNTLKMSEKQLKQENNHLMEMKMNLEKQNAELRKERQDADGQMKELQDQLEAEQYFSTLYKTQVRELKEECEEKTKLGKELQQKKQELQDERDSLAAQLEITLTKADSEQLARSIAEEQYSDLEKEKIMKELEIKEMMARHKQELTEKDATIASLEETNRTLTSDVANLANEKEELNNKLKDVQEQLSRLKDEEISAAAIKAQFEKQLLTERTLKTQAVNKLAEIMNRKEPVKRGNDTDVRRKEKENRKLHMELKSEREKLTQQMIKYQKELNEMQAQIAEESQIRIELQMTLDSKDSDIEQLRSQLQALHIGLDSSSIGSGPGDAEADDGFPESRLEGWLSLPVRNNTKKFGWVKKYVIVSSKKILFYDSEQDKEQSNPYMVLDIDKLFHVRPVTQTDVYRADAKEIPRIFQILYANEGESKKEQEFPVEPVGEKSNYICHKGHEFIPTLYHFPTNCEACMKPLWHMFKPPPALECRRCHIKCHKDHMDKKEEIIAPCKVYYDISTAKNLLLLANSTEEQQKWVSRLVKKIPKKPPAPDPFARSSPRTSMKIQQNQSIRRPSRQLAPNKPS

For this assay, the target named is ROCK2 (Homo sapiens, UniProt O75116). Description: ROCK2 kinase inhibition assay (Caliper LABCHIP, FITC peptide substrate). Conditions: 5 μM ATP, 1.5 μM peptide substrate; value ranges. In kind it is biochemical. How it is done:
The effectiveness of compounds of the present invention as ROCK inhibitors can be determined in a 30 μL assay containing 20 mM HEPES, pH 7.5, 20 mM MgCl2, 0.015% Brij-35, 4 mM DTT, 5 μM ATP and 1.5 μM peptide substrate (FITC-AHA-AKRRRLSSLRA-OH). Compounds were dissolved in DMSO so that the final concentration of DMSO was <2%, and the reaction was initiated with Rho kinase variants. After incubation, the reaction was terminated by the addition of EDTA and the phosphorylated and non-phosphorylated peptides separated using a LABCHIP® 3000 Reader (Caliper Life Sciences). […] Compounds were tested in dose-response format, and the inhibition of kinase activity was calculated at each concentration of compound. The inhibition data were fit using a curve-fitting program to determine the IC50; i.e., the concentration of compound required to inhibit 50% of kinase activity.
Representative Examples were tested in the ROCK2 assay described above and found having ROCK inhibitory activity.
What is called IC50 is the midpoint of a concentration-inhibition curve. Low values mean greater potency in that assay, high ones weaker potency in that assay. In turn, `CC(c1cccc(OCC2CC2)c1)N1CCN(c2ccc(-c3cn[nH]c3)cc2)C1=O` (single isomer, unassigned) [Example 196, 1-(4-(1H-pyrazol-4-yl)-phenyl)-3-(1-(3-(cyclo-propyl-methoxy)-phenyl)-ethyl)-imidazolidin-2-one] came in with an IC50 of 2.1 to 20 nM.

`COc1cccc(CN2CCN(c3cc(C)c(-c4cn[nH]c4)cn3)C2=O)c1` [Example 465, 1-(3-methoxybenzyl)-3-(4-methyl-5-(1H-pyrazol-4-yl)pyridin-2-yl)imidazolidin-2-one] came in with an IC50 of 20.1 to 200 nM.

Compound `O=C1N(Cc2cccc(C(F)(F)F)c2)CCN1c1ccc(-c2cn[nH]c2)cn1` [Example 240, 1-(5-(1H-pyrazol-4-yl)pyridin-2-yl)-3-(3-(trifluoromethyl)benzyl)imidazolidin-2-one] yielded an IC50 of 200 to 2000 nM. The figure for `COc1cccc(C(C)n2ccn(-c3ccc(-c4cn[nH]c4)cc3)c2=O)c1` (single isomer, unassigned) [Example 340, 1-(4-(1H-pyrazol-4-yl)phenyl)-3-(l-(3-methoxyphenyl)ethyl)-1H-imidazol-2(3H)-one] is 20.1 to 200 nM; for `CCc1nc(-n2ccn(C(C)c3cccc(OC)c3)c2=O)ccc1-c1cn[nH]c1` (single isomer, unassigned) [Example 183, 1-(6-ethyl-5-(1H-pyrazol-4-yl)pyridin-2-yl)-3-(1-(3-methoxy-phenyl)-ethyl)-1H-imidazol-2(3H)-one] it is below 2 nM; for `COc1cc(N2CCN(Cc3cccc(F)c3)C2=O)ccc1-c1cn[nH]c1` [Example 6, 1-(3-Fluorobenzyl)-3-(3-methoxy-4-(1H-pyrazol-4-yl)phenyl)imidazolidin-2-one] it is 2.1 to 20 nM. In turn, `CCOc1cccc(C(C)n2ccn(-c3ccc(-c4cn[nH]c4)cn3)c2=O)c1` (single isomer, unassigned) [Example 371, 1-(5-(1H-pyrazol-4-yl)pyridin-2-yl)-3-(1-(3-ethoxyphenyl)ethyl)-1H-imidazol-2(3H)-one] gave an IC50 of 20.1 to 200 nM. The figure for `O=C1N(CC2CCCCC2)CCN1c1ccc(-c2cn[nH]c2)cc1` [Example 211, 1-(4-(1H-pyrazol-4-yl)phenyl)-3-(cyclohexylmethyl)imidazolidin-2-one] is 200 to 2000 nM; for `COc1cc(N2CC(=O)N(C(C)c3ccccc3)C2=O)ccc1-c1cn[nH]c1` (centres unmarked) [Example 106, 1-(3-methoxy-4-(1H-pyrazol-4-yl)phenyl)-3-(1-phenylethyl) imidazolidine-2,4-dione] it is 20.1 to 200 nM. With `COc1cccc(C(C)n2ccn(-c3ccc(-c4cn[nH]c4)c(C)n3)c2=O)c1` (single isomer, unassigned) [Example 188, 1-(1-(3-methoxy-phenyl)ethyl)-3-(6-methyl-5-(1H-pyrazol-4-yl)pyridin-2-yl)-1H-imidazol-2(3H)-one] the figure was below 2 nM; with `COc1cccc(C(C)n2ccn(-c3ccc(-c4cn[nH]c4)cn3)c2=O)c1` (single isomer, unassigned) [Example 355, 1-(5-(1H-pyrazol-4-yl)pyridin-2-yl)-3-(1-(3-methoxyphenyl)ethyl)-1H-imidazol-2(3H)-one], below 2 nM; with `COc1cc(F)cc(Cn2ccn(-c3ccc(-c4cn[nH]c4)cc3)c2=O)c1` [Example 336, 1-(4-(1H-pyrazol-4-yl)phenyl)-3-(3-fluoro-5-methoxybenzyl)-1H-imidazol-2(3H)-one], 2.1 to 20 nM. `COc1cccc(C(C(=O)NCC2CC2)N2CCN(c3ccc(-c4cn[nH]c4)cc3)C2=O)c1` (single isomer, unassigned) [Example 297, 2-(3-(4-(1H-pyrazol-4-yl)phenyl)-2-oxoimidazolidin-1-yl)-N-(cyclopropylmethyl)-2-(3-methoxyphenyl)acetamide] displayed an IC50 of 200 to 2000 nM. The figure for `O=C(O)C1CN(c2ccc(-c3cn[nH]c3)cc2)C(=O)N1Cc1cccc(F)c1` (centres unmarked) [Example 32, 1-(4-(1H-Pyrazol-4-yl)phenyl)-3-(3-fluorobenzyl)-2-oxoimidazolidine-4-carboxylic Acid] is 200 to 2000 nM; for `CCc1nc(N2CCN(C(C)c3ccc(F)c(OC)c3)C2=O)ccc1-c1cn[nH]c1` (single isomer, unassigned) [Example 271, 1-(6-ethyl-5-(1H-pyrazol-4-yl)pyridin-2-yl)-3-(1-(4-fluoro-3-methoxyphenyl)ethyl)imidazolidin-2-one] it is 200 to 2000 nM. `COc1cc(N2C(=O)CN(CCc3ccccc3)C2=O)ccc1-c1cn[nH]c1` [Example 97, 3-(3-methoxy-4-(1H-pyrazol-4-yl)phenyl)-1-phenethylimidazolidine-2,4-dione]: the IC50 lay in the range of 200 to 2000 nM. The figure for `CCc1cc(-n2ccn(C(CO)c3cccc(OC)c3)c2=O)ccc1-c1cn[nH]c1` (single isomer, unassigned) [Example 358, 1-(3-ethyl-4-(1H-pyrazol-4-yl)phenyl)-3-(2-hydroxy-1-(3-methoxyphenyl)ethyl)-1H-imidazol-2(3H)-one] is 200 to 2000 nM; for `O=C1CN(CCc2ccccc2)C(=O)N1c1ccc(-c2cn[nH]c2)cc1` [Example 85, 3-(4-(1H-pyrazol-4-yl)phenyl)-1-phenethylimidazolidine-2,4-dione] it is 200 to 2000 nM; for `COc1cccc(CN2CCN(c3ccc(-c4ccnc(F)c4)cc3)C2=O)c1` [Example 54, 1-(4-(2-fluoropyridin-4-yl)phenyl)-3-(3-methoxybenzyl)imidazolidin-2-one] it is 20.1 to 200 nM. With `COc1cccc(C(CCO)N2CCN(c3ccc(-c4cn[nH]c4)c(OC)c3)C2=O)c1` (centres unmarked) [Example 21, 1-(3-Hydroxy-1-(3-methoxyphenyl)propyl)-3-(3-methoxy-4-(1H-pyrazol-4-yl)phenyl)imidazolidin-2-one] the figure was 2.1 to 20 nM. Turning to `COc1cccc(C(C(=O)NC2CC2)N2CCN(c3ccc(-c4cn[nH]c4)cc3)C2=O)c1` (single isomer, unassigned) [Example 300, 2-(3-(4-(1H-pyrazol-4-yl)phenyl)-2-oxoimidazolidin-1-yl)-N-cyclopropyl-2-(3-methoxyphenyl)acetamide], the half-inhibitory concentration (IC50) was 20.1 to 200 nM. With `O=c1n(Cc2cccc(OC(F)F)c2)ccn1-c1ccc(-c2cn[nH]c2)cc1` [Example 333, 1-(4-(1H-pyrazol-4-yl)phenyl)-3-(3-(difluoromethoxy)benzyl)-1H-imidazol-2(3H)-one] the figure was 2.1 to 20 nM; with `COc1cc(-c2cn[nH]c2)ccc1N1CCN(CCc2ccccc2F)C1=O` [Example 11, 1-(2-Fluorophenethyl)-3-(2-methoxy-4-(1H-pyrazol-4-yl)phenyl)imidazolidin-2-one], 20.1 to 200 nM; with `COc1cccc(C(C)N2CCN(c3ccc(-c4cn[nH]c4)c(C)n3)C2=O)c1` (single isomer, unassigned) [Example 182, 1-(1-(3-methoxy-phenyl)-ethyl)-3-(6-methyl-5-(1H-pyrazol-4-yl)pyridin-2-yl)-imidazolidin-2-one], 200 to 2000 nM. The figure for `CCc1nc(N2CCN(C(C)c3cccc(OC)c3)C2=O)ccc1-c1cn[nH]c1` (single isomer, unassigned) [Example 174, 1-(6-ethyl-5-(1H-pyrazol-4-yl)pyridin-2-yl)-3-(1-(3-methoxy-phenyl)ethyl) imidazolidin-2-one] is 200 to 2000 nM; for `COc1cc(N2CC(=O)N(Cc3c(F)cccc3F)C2=O)ccc1-c1cn[nH]c1` [Example 102, 3-(2,6-difluoro-benzyl)-1-(3-methoxy-4-(1H-pyrazol-4-yl)phenyl) imidazolidine-2,4-dione] it is 20.1 to 200 nM.

Turning to `COc1cccc(CN2CCN(c3ccc(-c4cn[nH]c4)c(C#N)c3)C2=O)c1` [Example 277, 5-(3-(3-methoxybenzyl)-2-oxoimidazolidin-1-yl)-2-(1H-pyrazol-4-yl)benzonitrile], the half-inhibitory concentration (IC50) fell in the range of 200 to 2000 nM.

`COc1cccc(C(C)N2C(=O)N(c3ccc(-c4cn[nH]c4)cc3)C[C@@H]2CO)c1` (single isomer, unassigned) [Example 133] gave an IC50 of 20.1 to 200 nM. The figure for `COc1cccc(CN2CCN(c3ccc(-c4cn[nH]c4)c(OC)n3)C2=O)c1F` [Example 252, 1-(2-fluoro-3-methoxybenzyl)-3-(6-methoxy-5-(1H-pyrazol-4-yl)pyridin-2-yl)imidazolidin-2-one] is 2.1 to 20 nM; for `CCc1nc(N2CCN(Cc3cccc(OC)c3)C2=O)ccc1-c1cn[nH]c1` [Example 167, 1-(6-ethyl-5-(1H-pyrazol-4-yl)pyridin-2-yl)-3-(3-methoxy-benzyl) imidazolidin-2-one] it is below 2 nM.

Take `COc1cccc(C(CO)N2CCN(c3ccc(-c4cn[nH]c4)cn3)C2=O)c1` (centres unmarked) [Example 442, 1-(5-(1H-pyrazol-4-yl)pyridin-2-yl)-3-(2-hydroxy-1-(3-methoxyphenyl)ethyl)imidazolidin-2-one]: the IC50 was 200 to 2000 nM.

For `CNc1nc(N2CCN(Cc3ccc(F)c(OC)c3)C2=O)ccc1-c1cn[nH]c1` [Example 199, 1-(4-fluoro-3-methoxy-benzyl)-3-(6-(methyl-amino)-5-(1H-pyrazol-4-yl)pyridin-2-yl)-imidazolidin-2-one], the IC50 lay within 20.1 to 200 nM. With `COc1nc(N2CCN(Cc3cccnc3)C2=O)ccc1-c1cn[nH]c1` [Example 253] the figure was 2.1 to 20 nM; with `COc1ccccc1CCn1ccn(-c2ccc(-c3cn[nH]c3)cc2)c1=O` [Example 66, 1-(4-(1H-Pyrazol-4-yl)phenyl)-3-(2-methoxyphenethyl)-1H-imidazol-2(3H)-one], 200 to 2000 nM; with `O=c1n(Cc2ccccc2F)ccn1-c1ccc(-c2cn[nH]c2)cc1` [Example 69, 1-(4-(1H-pyrazol-4-yl)phenyl)-3-(2-fluorobenzyl)-1H-imidazol-2(3H)-one], 20.1 to 200 nM.
